# Assays:
# [1] = biological target: Phosphodiesterase 1 (Homo sapiens, UniProt P54750+Q01064+Q14123); assay: Inhibition of PDE1 (unknown origin); type: protein assay
# [2] = biological target: T1, cGMP-specific 3',5'-cyclic phosphodiesterase (Homo sapiens, UniProt O76074); assay: Inhibition of PDE5A (unknown origin)
# [3] = biological target: T1, cGMP-specific 3',5'-cyclic phosphodiesterase; assay: Binding affinity to PDE5 (unknown origin); settings: tested as the 18F-labelled form
# [4] = Drug uptake in NMRI mouse lung assessed as maximum standardized uptake value incubated for 30 mins; type: ADME, tissue-based; settings: in vivo, 0.5 h
# [5] = Lipophilicity, logD of the compound in Octanol/potassium phosphate buffer at pH 7.4 after 1 hr by HPLC analysis; type: physicochemical
# [6] = Drug uptake in pig myocardium assessed as standardized uptake value; type: ADME, tissue-based, Sus scrofa; settings: in vivo
# [7] = biological target: T2, cAMP and cAMP-inhibited cGMP 3',5'-cyclic phosphodiesterase 10A (Homo sapiens, UniProt Q9Y233); assay: Inhibition of PDE10A (unknown origin)
# T2 sequence (Q9Y233 whole entry): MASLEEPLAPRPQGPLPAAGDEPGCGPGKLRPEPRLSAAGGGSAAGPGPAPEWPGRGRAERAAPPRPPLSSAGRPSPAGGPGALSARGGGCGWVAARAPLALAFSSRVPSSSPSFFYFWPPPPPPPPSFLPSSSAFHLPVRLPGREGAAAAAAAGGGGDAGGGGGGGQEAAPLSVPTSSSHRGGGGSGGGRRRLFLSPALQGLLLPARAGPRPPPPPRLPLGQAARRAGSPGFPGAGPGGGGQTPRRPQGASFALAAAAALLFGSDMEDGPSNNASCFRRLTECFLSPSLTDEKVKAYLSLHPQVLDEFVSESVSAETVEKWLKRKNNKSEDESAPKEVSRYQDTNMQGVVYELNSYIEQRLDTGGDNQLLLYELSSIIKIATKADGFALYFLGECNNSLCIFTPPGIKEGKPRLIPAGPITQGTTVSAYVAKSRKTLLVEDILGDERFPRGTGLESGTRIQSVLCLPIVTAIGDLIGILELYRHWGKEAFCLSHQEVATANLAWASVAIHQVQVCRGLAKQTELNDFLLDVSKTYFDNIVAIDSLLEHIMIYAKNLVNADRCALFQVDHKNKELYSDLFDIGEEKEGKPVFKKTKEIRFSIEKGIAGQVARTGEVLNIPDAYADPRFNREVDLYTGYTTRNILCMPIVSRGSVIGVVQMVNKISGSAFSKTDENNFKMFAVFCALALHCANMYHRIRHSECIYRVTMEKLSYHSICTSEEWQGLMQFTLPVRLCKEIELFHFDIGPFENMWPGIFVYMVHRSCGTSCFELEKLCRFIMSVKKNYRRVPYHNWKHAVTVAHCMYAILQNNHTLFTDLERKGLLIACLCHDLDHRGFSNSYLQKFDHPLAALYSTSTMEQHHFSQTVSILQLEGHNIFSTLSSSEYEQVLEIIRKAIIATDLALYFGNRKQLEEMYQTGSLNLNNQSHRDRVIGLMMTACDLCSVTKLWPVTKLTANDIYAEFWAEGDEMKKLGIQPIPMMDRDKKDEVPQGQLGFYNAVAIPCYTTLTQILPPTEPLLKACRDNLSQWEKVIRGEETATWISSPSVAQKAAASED
# [8] = biological target: T2, cAMP and cAMP-inhibited cGMP 3',5'-cyclic phosphodiesterase 10A; assay: Binding affinity to PDE10A (unknown origin) assessed as dissociation constant
# [9] = Stability in human plasma assessed as parent compound remaining after 120 mins; type: ADME, cell-free; settings: read-out: Stability
# [10] = Drug uptake in human caudate nucleus assessed as standardized uptake value; type: ADME, tissue-based
# [11] = Drug uptake in human putamen nucleus assessed as standardized uptake value; type: ADME, tissue-based
# [12] = Drug uptake in human globus pallidus assessed as standardized uptake value; type: ADME, tissue-based
# [13] = Metabolic stability in mouse brain assessed as parent compound remaining incubated for 30 mins by HPLC analysis; type: ADME, tissue-based; settings: read-out: Stability
# [14] = Metabolic stability in mouse plasma assessed as parent compound remaining incubated for 30 mins by HPLC analysis; type: ADME, cell-free; settings: read-out: Stability
# [15] = Drug uptake in mouse striatum; type: ADME, tissue-based; settings: in vivo
# [16] = Drug uptake in mouse brown adipose tissue; type: ADME, tissue-based; settings: in vivo
# [17] = Drug uptake in mouse striatum assessed as standardized uptake value; type: ADME, tissue-based; settings: in vivo
# [18] = biological target: T3, cGMP-dependent 3',5'-cyclic phosphodiesterase (Homo sapiens, UniProt O00408); assay: Inhibition of human PDE2A
# T3 sequence (O00408 whole entry): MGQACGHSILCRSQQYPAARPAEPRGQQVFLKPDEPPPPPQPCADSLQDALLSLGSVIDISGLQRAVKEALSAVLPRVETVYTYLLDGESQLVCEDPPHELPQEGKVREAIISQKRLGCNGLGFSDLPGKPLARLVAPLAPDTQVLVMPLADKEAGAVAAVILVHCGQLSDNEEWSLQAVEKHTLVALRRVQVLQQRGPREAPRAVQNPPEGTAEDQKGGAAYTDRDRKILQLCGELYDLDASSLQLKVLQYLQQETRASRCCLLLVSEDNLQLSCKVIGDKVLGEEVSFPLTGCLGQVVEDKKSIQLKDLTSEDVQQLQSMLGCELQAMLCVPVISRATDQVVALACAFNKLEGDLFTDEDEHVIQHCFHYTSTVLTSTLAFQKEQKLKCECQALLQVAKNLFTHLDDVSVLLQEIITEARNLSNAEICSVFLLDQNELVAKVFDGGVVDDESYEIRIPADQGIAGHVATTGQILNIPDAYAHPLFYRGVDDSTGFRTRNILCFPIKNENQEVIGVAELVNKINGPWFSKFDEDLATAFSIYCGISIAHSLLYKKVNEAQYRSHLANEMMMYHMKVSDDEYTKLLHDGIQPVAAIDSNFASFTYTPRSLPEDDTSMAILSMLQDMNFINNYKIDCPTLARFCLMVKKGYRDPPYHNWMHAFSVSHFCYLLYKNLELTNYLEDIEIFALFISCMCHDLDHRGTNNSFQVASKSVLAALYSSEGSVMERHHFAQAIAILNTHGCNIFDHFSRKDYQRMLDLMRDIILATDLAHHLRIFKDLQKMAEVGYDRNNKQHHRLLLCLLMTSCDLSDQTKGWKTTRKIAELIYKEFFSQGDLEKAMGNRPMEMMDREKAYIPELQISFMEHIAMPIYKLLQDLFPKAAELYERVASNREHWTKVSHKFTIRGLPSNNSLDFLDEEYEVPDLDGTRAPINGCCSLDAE
# [19] = biological target: T2, cAMP and cAMP-inhibited cGMP 3',5'-cyclic phosphodiesterase 10A; assay: Inhibition of human PDE10A
# [20] = Drug uptake in NMRI mouse lung incubated for 30 mins relative to control; type: ADME, tissue-based; settings: in vivo, 0.5 h
# [21] = biological target: Phosphodiesterase 7 (Homo sapiens, UniProt Q13946+Q9NP56); assay: Inhibition of PDE7 (unknown origin); type: protein assay
# [22] = Stability in mouse brain measured at 15 mins; type: ADME, tissue-based; settings: read-out: Stability
# [23] = Metabolic stability in baboon brain assessed as parent compound remaining incubated for 90 mins; type: ADME, tissue-based, Papio; settings: read-out: Stability
# [24] = biological target: T2, cAMP and cAMP-inhibited cGMP 3',5'-cyclic phosphodiesterase 10A; assay: Inhibition of human PDE10
# [25] = biological target: Dual 3',5'-cyclic-AMP and -GMP phosphodiesterase 11A (Homo sapiens, UniProt Q9HCR9); assay: Inhibition of human PDE11
# Dual 3',5'-cyclic-AMP and -GMP phosphodiesterase 11A, sequence (Q9HCR9 whole entry): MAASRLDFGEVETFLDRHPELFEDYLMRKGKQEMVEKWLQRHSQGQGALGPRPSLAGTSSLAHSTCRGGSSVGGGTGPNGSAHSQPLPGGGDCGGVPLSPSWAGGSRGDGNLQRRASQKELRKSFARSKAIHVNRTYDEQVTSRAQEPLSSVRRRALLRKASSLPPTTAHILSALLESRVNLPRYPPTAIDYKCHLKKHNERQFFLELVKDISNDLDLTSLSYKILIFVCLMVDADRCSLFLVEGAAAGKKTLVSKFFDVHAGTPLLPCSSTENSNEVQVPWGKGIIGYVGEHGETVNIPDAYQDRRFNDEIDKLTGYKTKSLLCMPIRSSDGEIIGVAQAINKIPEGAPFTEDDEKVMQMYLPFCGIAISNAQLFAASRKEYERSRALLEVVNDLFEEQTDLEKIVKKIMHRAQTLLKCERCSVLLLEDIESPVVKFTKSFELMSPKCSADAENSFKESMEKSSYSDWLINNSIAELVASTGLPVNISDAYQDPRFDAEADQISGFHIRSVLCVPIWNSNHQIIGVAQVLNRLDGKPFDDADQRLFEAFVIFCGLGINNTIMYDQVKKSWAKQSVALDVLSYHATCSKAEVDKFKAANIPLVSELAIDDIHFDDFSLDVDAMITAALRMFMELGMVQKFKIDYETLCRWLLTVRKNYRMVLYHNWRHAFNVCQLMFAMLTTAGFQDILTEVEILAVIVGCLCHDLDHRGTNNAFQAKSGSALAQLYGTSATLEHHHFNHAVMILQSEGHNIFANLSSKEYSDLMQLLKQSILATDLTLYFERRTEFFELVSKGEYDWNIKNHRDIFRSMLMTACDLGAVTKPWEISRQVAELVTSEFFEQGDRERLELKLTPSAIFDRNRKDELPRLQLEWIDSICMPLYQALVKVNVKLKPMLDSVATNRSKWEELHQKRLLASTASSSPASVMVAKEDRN
# [26] = Toxicity in mouse assessed as body weight loss at 10 mg/kg/day, po; type: organism-based; settings: in vivo
# [27] = biological target: T1, cGMP-specific 3',5'-cyclic phosphodiesterase; assay: Inhibition of PDE5 (unknown origin)
# [28] = Metabolic stability in cynomolgus monkey assessed as parent compound remaining incubated for 30 mins in presence of NADPH; type: ADME, Macaca fascicularis; settings: read-out: Stability
# [29] = biological target: T4, cAMP and cAMP-inhibited cGMP 3',5'-cyclic phosphodiesterase 10A (Rattus norvegicus, UniProt Q9QYJ6)
# T4 sequence (Q9QYJ6 whole entry): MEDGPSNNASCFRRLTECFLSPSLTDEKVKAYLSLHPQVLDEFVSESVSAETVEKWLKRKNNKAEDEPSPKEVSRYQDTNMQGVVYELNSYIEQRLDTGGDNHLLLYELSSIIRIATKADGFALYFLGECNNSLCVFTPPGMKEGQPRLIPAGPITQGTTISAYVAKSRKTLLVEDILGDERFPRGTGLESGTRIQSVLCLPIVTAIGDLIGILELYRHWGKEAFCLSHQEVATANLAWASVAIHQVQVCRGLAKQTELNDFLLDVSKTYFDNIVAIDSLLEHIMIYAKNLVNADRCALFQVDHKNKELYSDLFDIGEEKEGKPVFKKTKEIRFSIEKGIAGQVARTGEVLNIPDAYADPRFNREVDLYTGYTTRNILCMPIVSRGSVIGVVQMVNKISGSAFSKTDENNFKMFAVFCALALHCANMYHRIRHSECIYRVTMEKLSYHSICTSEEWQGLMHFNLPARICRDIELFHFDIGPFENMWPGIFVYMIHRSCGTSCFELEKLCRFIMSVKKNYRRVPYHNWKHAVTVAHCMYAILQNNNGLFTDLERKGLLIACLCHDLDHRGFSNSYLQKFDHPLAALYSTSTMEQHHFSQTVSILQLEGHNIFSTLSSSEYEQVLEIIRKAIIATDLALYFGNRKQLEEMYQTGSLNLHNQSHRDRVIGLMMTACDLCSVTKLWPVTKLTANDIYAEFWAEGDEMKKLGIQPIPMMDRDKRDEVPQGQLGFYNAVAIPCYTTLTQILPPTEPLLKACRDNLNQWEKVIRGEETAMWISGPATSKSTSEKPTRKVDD
# [30] = Metabolic stability in non human primates plasma assessed as parent compound remaining incubated for 70 mins by HPLC analysis; type: ADME, cell-free; settings: read-out: Stability
# [31] = biological target: Phosphodiesterase 4 (Homo sapiens, UniProt P27815+Q08499+Q07343+Q08493); assay: Binding affinity to human PDE4 assessed as dissociation constant; type: protein assay
# [32] = biological target: T2, cAMP and cAMP-inhibited cGMP 3',5'-cyclic phosphodiesterase 10A; assay: Binding affinity to full length human PDE10A assessed as dissociation constant using [3H]-cAMP as substrate
# [33] = biological target: T2, cAMP and cAMP-inhibited cGMP 3',5'-cyclic phosphodiesterase 10A; assay: Binding affinity to full length human PDE10A assessed as dissociation constant
# [34] = biological target: High affinity 3',5'-cyclic-AMP phosphodiesterase 7A (Homo sapiens, UniProt Q13946); assay: Inhibition of human PDE7A1
# High affinity 3',5'-cyclic-AMP phosphodiesterase 7A, sequence (Q13946 whole entry): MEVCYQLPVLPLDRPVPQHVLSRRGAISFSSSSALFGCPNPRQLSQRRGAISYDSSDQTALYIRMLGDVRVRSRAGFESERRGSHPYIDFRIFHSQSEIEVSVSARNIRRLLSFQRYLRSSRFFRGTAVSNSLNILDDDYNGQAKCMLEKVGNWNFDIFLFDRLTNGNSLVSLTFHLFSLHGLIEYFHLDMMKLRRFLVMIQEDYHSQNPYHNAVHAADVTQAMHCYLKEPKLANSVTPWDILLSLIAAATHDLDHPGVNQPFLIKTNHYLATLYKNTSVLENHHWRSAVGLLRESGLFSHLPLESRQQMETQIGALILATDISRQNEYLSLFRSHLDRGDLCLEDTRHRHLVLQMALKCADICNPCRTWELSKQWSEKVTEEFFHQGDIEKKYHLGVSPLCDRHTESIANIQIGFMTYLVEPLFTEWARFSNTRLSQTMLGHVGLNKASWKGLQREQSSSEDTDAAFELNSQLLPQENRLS
# [35] = biological target: Dual specificity calcium/calmodulin-dependent 3',5'-cyclic nucleotide phosphodiesterase 1B (Homo sapiens, UniProt Q01064); assay: Inhibition of human PDE1B
# Dual specificity calcium/calmodulin-dependent 3',5'-cyclic nucleotide phosphodiesterase 1B, sequence (Q01064 whole entry): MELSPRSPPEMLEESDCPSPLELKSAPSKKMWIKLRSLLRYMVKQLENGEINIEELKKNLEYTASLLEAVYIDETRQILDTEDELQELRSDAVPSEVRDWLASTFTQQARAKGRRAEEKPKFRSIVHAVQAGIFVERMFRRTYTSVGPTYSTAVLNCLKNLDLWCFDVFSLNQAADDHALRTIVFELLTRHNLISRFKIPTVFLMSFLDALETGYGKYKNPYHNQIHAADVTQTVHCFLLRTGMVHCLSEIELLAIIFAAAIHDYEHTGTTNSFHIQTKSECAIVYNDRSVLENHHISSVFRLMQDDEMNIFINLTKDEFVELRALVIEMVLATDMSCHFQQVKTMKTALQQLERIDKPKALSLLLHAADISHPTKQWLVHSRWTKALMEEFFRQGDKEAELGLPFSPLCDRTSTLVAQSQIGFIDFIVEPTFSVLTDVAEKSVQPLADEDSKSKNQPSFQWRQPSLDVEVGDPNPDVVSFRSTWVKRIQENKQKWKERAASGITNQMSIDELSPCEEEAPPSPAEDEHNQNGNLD
# [36] = biological target: Dual specificity calcium/calmodulin-dependent 3',5'-cyclic nucleotide phosphodiesterase 1C (Homo sapiens, UniProt Q14123); assay: Inhibition of human PDE1C
# [37] = biological target: T3, cGMP-dependent 3',5'-cyclic phosphodiesterase; assay: Inhibition of human PDE2
# [38] = biological target: T1, cGMP-specific 3',5'-cyclic phosphodiesterase; assay: Inhibition of human PDE5
# [39] = biological target: 3',5'-cyclic-AMP phosphodiesterase 4A (Homo sapiens, UniProt P27815); assay: Inhibition of human PDE4A
# 3',5'-cyclic-AMP phosphodiesterase 4A, sequence (P27815 whole entry): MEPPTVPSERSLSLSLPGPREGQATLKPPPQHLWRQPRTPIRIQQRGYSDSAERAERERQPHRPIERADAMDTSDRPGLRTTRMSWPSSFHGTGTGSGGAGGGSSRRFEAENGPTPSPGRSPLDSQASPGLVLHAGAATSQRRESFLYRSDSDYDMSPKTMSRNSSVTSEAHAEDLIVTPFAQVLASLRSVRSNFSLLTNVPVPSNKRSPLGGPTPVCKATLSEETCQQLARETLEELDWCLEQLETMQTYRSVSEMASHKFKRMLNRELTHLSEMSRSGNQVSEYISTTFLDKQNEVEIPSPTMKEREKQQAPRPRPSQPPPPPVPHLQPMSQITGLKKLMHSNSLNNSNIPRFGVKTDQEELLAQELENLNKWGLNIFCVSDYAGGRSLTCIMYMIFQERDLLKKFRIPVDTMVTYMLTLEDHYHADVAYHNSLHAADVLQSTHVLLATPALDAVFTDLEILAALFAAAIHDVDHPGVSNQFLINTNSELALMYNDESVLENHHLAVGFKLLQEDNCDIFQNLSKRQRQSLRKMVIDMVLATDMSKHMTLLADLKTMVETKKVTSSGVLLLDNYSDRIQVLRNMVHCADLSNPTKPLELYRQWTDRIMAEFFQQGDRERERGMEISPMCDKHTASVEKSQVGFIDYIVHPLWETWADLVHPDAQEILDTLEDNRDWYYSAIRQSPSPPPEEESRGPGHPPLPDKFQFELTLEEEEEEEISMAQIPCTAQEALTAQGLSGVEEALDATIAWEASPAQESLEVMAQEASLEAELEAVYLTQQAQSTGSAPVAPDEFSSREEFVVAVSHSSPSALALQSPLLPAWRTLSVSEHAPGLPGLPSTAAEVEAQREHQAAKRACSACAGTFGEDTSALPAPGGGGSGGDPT
compound,measurement,setting,value
CC(C)Cn1c(=O)n(C)c(=O)c2c(Nc3ccccc3)n(Cc3ccc(C4CCCN4C)cc3)nc21 (stereo not drawn),IC50,[1],13 nM
CCc1cc(C#N)cc2c(NCc3ccc(OC)c(Cl)c3)c(COCCF)cnc12,IC50,[2],5.92 nM
same,Bmax,[3],0.1 nM
CCCc1nc(C)c2c(=O)[nH]c(-c3cc(S(=O)(=O)N4CCN(CC[18F])CC4)ccc3OCC)nn12,SUVmax,[4],8.9
CC(C)Oc1cccc2c1C(=O)N(CCc1nc3ccccc3c(=O)n1-c1ccc(O[11CH3])cc1)C2=O,logD at 1 h,[5],3.19
CCCCN1C(=O)[C@H]2Cc3c([nH]c4ccccc34)[C@@H](c3ccc(O[11CH3])cc3)N2C1=O,SUV,[6],3.8
CC(=O)N1CCC(c2nccnc2Oc2ccc(C(=O)c3nc4ccccc4[nH]3)cc2)CC1,IC50,[7],0.18 nM
Cc1ccc2c(=O)n(-c3ccc4cnn(CC[18F])c4c3)c(CCN3C(=O)c4cccc(OC(C)C)c4C3=O)nc2c1,Kd,[8],0.029 nM
same,remaining at 2 h,[9],20%
same,SUV,[10],0.7%
same,SUV,[11],0.7%
same,SUV,[12],1.5%
COc1cc(Br)cc2c1nc(C)c1c(C)nc(-c3ccc([18F])nc3)n12,remaining at 0.5 h,[13],88%
same,remaining at 0.5 h,[14],64%
same,Drug uptake,[15],130%
same,Drug uptake,[16],30%
same,SUV,[17],2.7
CC([18F])C(=O)N1CCC(c2nccnc2Oc2ccc(C(=O)c3nc4ccccc4[nH]3)cc2)CC1 (stereo not drawn),IC50,[7],0.13 nM
COc1ccc2nnc3c(C)nc(-c4cc(OCCC[18F])ccc4F)n3c2n1,IC50,[18],11.4 nM
same,IC50,[19],7.3 nM
CCCc1nn(C)c2c(=O)[nH]c(-c3cc(S(=O)(=O)N4CCN([11CH3])CC4)ccc3OCC)nc12,SUVmax,[4],8
same,Drug uptake,[20],> 86%
[11CH3]Oc1cn(-c2ccc(C3CCOCC3)cc2F)nc(-c2ccnn2-c2ccccc2)c1=O,IC50,[7],0.77 nM
COc1cc2nncc(-c3cnc(NC(C)C)c(C)c3)c2cc1O[11CH3],IC50,[7],1.9 nM
O=C1Nc2c(Cl)ccc(OCC[18F])c2C2(CCCCC2)N1,IC50,[21],17 nM
same,remaining at […],[22],84%
[11CH3]N(c1cc(N2CC[C@@H](F)C2)nc2cc(-c3cnc4c(n3)CCCC4)nn12)C1CCOCC1,IC50,[7],0.06 nM
same,remaining at 1.5 h,[23],50%
CC(C)C(=O)c1c(C(C)C)nn2ccccc12 [IBUDILAST],IC50,[24],≤ 10000 nM
same,IC50,[25],≤ 10000 nM
CCC(CC)Nc1ncnc2c(OC)c(OC)ccc12,IC50,[1],170 nM
Cn1cc(-c2ccncc2)c(-c2ccc(OCc3ccc4ccccc4n3)cc2)n1 [MARDEPODECT],Activity,[26],8.61%
Cc1cnc(COc2ccc(-c3nn(CC[18F])cc3-c3ccncc3)cc2)c(C)c1,IC50,[7],2 nM
COc1ccc(CNc2c(CO)cnc3c(N4CC(F)C4)cc(C#N)cc23)cc1Cl,IC50,[27],1.86 nM
same,IC50,[2],5.92 nM
same,Bmax,[3],0.1 nM
Cc1ccc(C)n2nc(CCc3nc(-c4ccccc4)cn3[11CH3])nc12,remaining at 0.5 h,[28],27%
same,IC50,[29],0.39 nM
COc1ccc2nnc3c(C)nc(-c4cc(OCCCC[18F])ccc4F)n3c2n1,IC50,[18],913 nM
same,IC50,[19],7.3 nM
[11CH3]n1cc(-c2ccncc2)c(-c2ccc(OCc3ccc4ccccc4n3)cc2)n1,remaining at 1.167 h,[30],24%
same,remaining at 1.5 h,[23],30%
Cc1ccc2c(=O)n(-c3ccc(OC[18F])cc3)c(CCN3C(=O)c4cccc(OC(C)C)c4C3=O)nc2c1,Kd,[8],0.097 nM
same,remaining at 2 h,[9],20%
[11CH3]n1nnc(COc2ccc(Cl)c3c2C2(CCCCC2)NC(=O)N3)n1,IC50,[21],1.7 nM
same,remaining at […],[22],74%
CCCCN1C(=O)[C@H]2Cc3c([nH]c4ccccc34)[C@@H](c3ccc(OC)cc3)N2C1=O,SUV,[6],2.6
CCCCOc1ccc(F)c(-c2nc(C)c3nnc4ccc(OCC[18F])nc4n23)c1,IC50,[19],> 1000 nM
O=C1C[C@H](c2ccc(OCF)c(OC3CCCC3)c2)CN1,Kd,[31],0.26 nM
[18F]CCn1cc(-c2ccncc2)c(-c2ccc(OCc3ccc4ccccc4n3)cc2)n1,IC50,[7],0.5 nM
same,Kd,[32],3.17 nM
same,Kd,[33],6.62 nM
Cc1ccc([N+](=O)[O-])cc1S(=O)(=O)N(C)C,IC50,[34],260 nM
same,IC50,[35],62000 nM
same,IC50,[36],62000 nM
same,IC50,[37],62000 nM
same,IC50,[38],62000 nM
same,IC50,[39],62000 nM
